# Reference: US9051310B2, “Nicotinamide derivative or salt thereof” (FUJIFILM Corporation, priority 2011, dated 2015)
# Molecular target: T1, glutathione S-transferase (GST)-linked full-length human Syk protein (Homo sapiens, UniProt P43405)
# T1 construct: glutathione S-transferase (GST)-linked full-length human Syk protein; purchased Carna Biosciences; host or cells: Baculovirus expression system
# Experiment: Syk enzyme assay
# Type: biochemical
# Settings: 0.83 nM Syk, time-resolved fluorescence; read-out: IC50 of Syk-inhibitory activity
# Method in brief: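 Phosphotyrosine on a biotin-peptide substrate (0.5 μM) was read by time-resolved fluorescence at 615 and 665 nm with Eu-anti-pTyr antibody and APC-streptavidin after 1 h EDTA stop.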
row,IC50 [nM],Compound
1,< 10,"Cc1cnn(-c2cncc(Nc3nc(N[C@H](C4CC4)[C@H](C)N)c(F)cc3C(N)=O)c2)n1 [Example 2-532, 6-(((1R,2S)-2-amino-1-cyclopropylpropyl)amino)-5-fluoro-2-((5-(4-methyl-2H-1,2,3-triazol-2-yl)pyridin-3-yl)amino)nicotinamide]"
2,50 to 100,"Cc1nn(-c2cncc(Nc3nc(N[C@H](C4CC4)[C@H](C)N)c(F)cc3C(N)=O)c2)nc1C [Example 2-534, 6-(((1R,2S)-2-amino-1-cyclopropylpropyl)amino)-2-((5-(4,5-dimethyl-2H-1,2,3-triazol-2-yl)pyridin-3-yl)amino)-5-fluoronicotinamide]"
3,10 to 50,"COCCNc1nn(CCOC)c2ccc(Nc3nc(N[C@@H]4CCCC[C@@H]4N)c(F)cc3C(N)=O)cc12 [Example 2-535, 6-(((1R,2S)-2-aminocyclohexyl)amino)-5-fluoro-2-((1-(2-methoxyethyl)-3-((2-methoxyethyl)amino)-1H-indazol-5-yl)amino)nicotinamide]"
4,10 to 50,"CC[C@@H](Nc1nc(Nc2ccc3c(c2)c(NCCOC)nn3CCOC)c(C(N)=O)cc1F)[C@H](C)N [Example 2-536, 6-(((2S,3R)-2-aminopentan-3-yl)amino)-5-fluoro-2-((1-(2-methoxyethyl)-3-((2-methoxyethyl)amino)-1H-indazol-5-yl)amino)nicotinamide]"
5,10 to 50,"COCCNc1nn(CCOC)c2ccc(Nc3nc(N[C@H](C4CC4)[C@H](C)N)c(F)cc3C(N)=O)cc12 [Example 2-537, 6-(((1R,2S)-2-amino-1-cyclopropylpropyl)amino)-5-fluoro-2-((1-(2-methoxyethyl)-3-((2-methoxyethyl)amino)-1H-indazol-5-yl)amino)nicotinamide]"
6,< 10,COCCn1nc(OC)c2cc(Nc3nc(N[C@H](C4CCC4)[C@H](C)N)c(F)cc3C(N)=O)ccc21 [Example 2-540]
7,< 10,"CC(C)C[C@H](CN)Nc1nc(Nc2ccc3c(c2)c(OC(F)F)nn3C)c(C(N)=O)cc1F [Example 2-541, (R)-6-((1-amino-4-methylpentan-2-yl)amino)-2-((3-(difluoromethoxy)-1-methyl-1H-indazol-5-yl)amino)-5-fluoronicotinamide]"
8,< 10,"COCCn1nc(OC(F)F)c2cc(Nc3nc(N[C@@H](CN)CC(C)C)c(F)cc3C(N)=O)ccc21 [Example 2-542, (R)-6-((1-amino-4-methylpentan-2-yl)amino)-2-((3-(difluoromethoxy)-1-(2-methoxyethyl)-1H-indazol-5-yl)amino)-5-fluoronicotinamide]"
9,< 10,"COCCn1nc(OC(F)F)c2cc(Nc3nc(N[C@H](C4CCC4)[C@H](C)N)c(F)cc3C(N)=O)ccc21 [Example 2-543, 6-(((1R,2S)-2-amino-1-cyclobutylpropyl)amino)-2-((3-(difluoromethoxy)-1-(2-methoxyethyl)-1H-indazol-5-yl)amino)-5-fluoronicotinamide]"
10,10 to 50,"CC[C@H](N)[C@@H](C)Nc1nc(Nc2ccc3c(c2)c(OC(F)F)nn3CCOC)c(C(N)=O)cc1F [Example 2-544, 6-(((2R,3S)-3-aminopentan-2-yl)amino)-2-((3-(difluoromethoxy)-1-(2-methoxyethyl)-1H-indazol-5-yl)amino)-5-fluoronicotinamide]"
11,< 10,"CC[C@H](N)[C@H](Nc1nc(Nc2ccc3c(c2)c(C)nn3C)c(C(N)=O)cc1F)C1CC1 [Example 2-545, 6-(((1R,2S)-2-amino-1-cyclopropylbutyl)amino)-2-((1,3-dimethyl-1H-indazol-5-yl)amino)-5-fluoronicotinamide]"
12,< 10,"CC[C@H](N)[C@H](Nc1nc(Nc2cccc3c2cnn3CC(F)F)c(C(N)=O)cc1F)C1CC1 [Example 2-547, 6-(((1R,2S)-2-amino-1-cyclopropylbutyl)amino)-2-((1-(2,2-difluoroethyl)-1H-indazol-4-yl)amino)-5-fluoronicotinamide]"
13,10 to 50,"Cc1ncc(Nc2nc(N[C@H](c3cc(F)cc(F)c3)[C@H](C)N)c(F)cc2C(N)=O)cc1-n1nccn1 [Example 2-548, 6-(((1R,2S)-2-amino-1-(3,5-difluorophenyl)propyl)amino)-5-fluoro-2-((6-methyl-5-(2H-1,2,3-triazol-2-yl)pyridin-3-yl)amino)nicotinamide]"
14,10 to 50,"C[C@H](N)[C@H](Nc1nc(Nc2ccc3c(c2)c(N(C)C)nn3C)c(C(N)=O)cc1F)c1cc(F)cc(F)c1 [Example 2-549, 6-(((1R,2S)-2-amino-1-(3,5-difluorophenyl)propyl)amino)-2-((3-(dimethylamino)-1-methyl-1H-indazol-5-yl)amino)-5-fluoronicotinamide]"
15,< 10,"COCCn1ncc2cc(Nc3nc(N[C@H](c4cc(F)cc(F)c4)[C@H](C)N)c(F)cc3C(N)=O)ccc21 [Example 2-550, 6-(((1R,2S)-2-amino-1-(3,5-difluorophenyl)propyl)amino)-5-fluoro-2-((1-(2-methoxyethyl)-1H-indazol-5-yl)amino)nicotinamide]"
16,10 to 50,"CCn1ncc2c(Nc3nc(N[C@H](c4cc(F)cc(F)c4)[C@H](C)N)c(F)cc3C(N)=O)cccc21 [Example 2-551, 6-(((1R,2S)-2-amino-1-[3,5-difluorophenyl)propyl)amino)-2-((1-ethyl-1H-indazol-4-yl)amino)-5-fluoronicotinamide]"
17,< 10,"Cc1ncc(Nc2nc(N[C@H](c3ccc(F)c(F)c3)[C@H](C)N)c(F)cc2C(N)=O)cc1-n1nccn1 [Example 2-552, 6-(((1R,2S)-2-amino-1-(3,4-difluorophenyl)propyl)amino)-5-fluoro-2-((6-methyl-5-(2H-1,2,3-triazol-2-yl)pyridin-3-yl)amino)nicotinamide]"
18,< 10,"C[C@H](N)[C@H](Nc1nc(Nc2ccc3c(c2)c(N(C)C)nn3C)c(C(N)=O)cc1F)c1ccc(F)c(F)c1 [Example 2-553, 6-(((1R,2S)-2-amino-1-(3,4-difluorophenyl)propyl)amino)-2-((3-(dimethylamino)-1-methyl-1H-indazol-5-yl)amino)-5-fluoronicotinamide]"
19,< 10,"COCCn1ncc2cc(Nc3nc(N[C@H](c4ccc(F)c(F)c4)[C@H](C)N)c(F)cc3C(N)=O)ccc21 [Example 2-554, 6-(((1R,2S)-2-amino-1-(3,4-difluorophenyl)propyl)amino)-5-fluoro-2-((1-(2-methoxyethyl)-1H-indazol-5-yl)amino)nicotinamide]"
20,< 10,"CCn1ncc2c(Nc3nc(N[C@H](c4ccc(F)c(F)c4)[C@H](C)N)c(F)cc3C(N)=O)cccc21 [Example 2-555, 6-(((1R,2S)-2-amino-1-(3,4-difluorophenyl)propyl)amino)-2-((1-ethyl-1H-indazol-4-yl)amino)-5-fluoronicotinamide]"
21,50 to 100,"C[C@H](N)[C@H](Nc1nc(Nc2cnc(N3CCOCC3)nc2)c(C(N)=O)cc1F)C1CC1 [Example 2-563, 6-(((1R,2S)-2-amino-1-cyclopropylpropyl)amino)-5-fluoro-2-((2-morpholinopyrimidin-5-yl)amino)nicotinamide]"
